{"source": "patent US7202239B2", "about": "“Cyclohexylphenyl carboxamides tocolytic oxytocin receptor antagonists” (Wyeth, priority 2001, dated 2007)"}
{"smiles": "O=C(c1ccc(C2CCCCC2)cc1)N1Cc2cccn2Cc2ccccc21", "note": "[Example 4, 10-(4-Cyclohexyl-benzoyl)-10,11-dihydro-5H-pyrrolo[2,1-c][1,4]benzodiazepine]", "values": [{"measurement": "melting point", "result": "127 to 129", "unit": "°C"}]}
